Results taken from patent US7615551B2, “Salicylate and gentisate salts of a piperazine compound” (Solvay Pharmaceuticals, B.V., priority 2005, dated 2009).

Columns and labels:
[1] = Water solubility; assay type: physicochemical; settings: excess solid salt in water, equilibrated at least 24 hours, filtered, HPLC-UV; resulting pH 5.8
Method: Water solubility was determined by combining an excess amount of solid salt with ˜2 mL D1 water in a 4 mL glass screw-cap vial and equilibrating for at least 24 hours on an end-over-end rotator. The resulting suspensions were filtered through a 0.22 μm PVDF filter and assayed by high pressure liquid chromatography with quantitation by UV against standards of compound 1.

[2] = test system: catalepsy; settings: rodents; cited from earlier work
[3] = in vivo; cited from earlier work
[4] = target: D2 receptors (Homo sapiens, UniProt P14416); settings: cited from earlier work
[5] = target: 5HT reuptake (Homo sapiens, UniProt P31645); settings: in therapeutic models; cited from earlier work
5HT reuptake, sequence (P31645 whole entry): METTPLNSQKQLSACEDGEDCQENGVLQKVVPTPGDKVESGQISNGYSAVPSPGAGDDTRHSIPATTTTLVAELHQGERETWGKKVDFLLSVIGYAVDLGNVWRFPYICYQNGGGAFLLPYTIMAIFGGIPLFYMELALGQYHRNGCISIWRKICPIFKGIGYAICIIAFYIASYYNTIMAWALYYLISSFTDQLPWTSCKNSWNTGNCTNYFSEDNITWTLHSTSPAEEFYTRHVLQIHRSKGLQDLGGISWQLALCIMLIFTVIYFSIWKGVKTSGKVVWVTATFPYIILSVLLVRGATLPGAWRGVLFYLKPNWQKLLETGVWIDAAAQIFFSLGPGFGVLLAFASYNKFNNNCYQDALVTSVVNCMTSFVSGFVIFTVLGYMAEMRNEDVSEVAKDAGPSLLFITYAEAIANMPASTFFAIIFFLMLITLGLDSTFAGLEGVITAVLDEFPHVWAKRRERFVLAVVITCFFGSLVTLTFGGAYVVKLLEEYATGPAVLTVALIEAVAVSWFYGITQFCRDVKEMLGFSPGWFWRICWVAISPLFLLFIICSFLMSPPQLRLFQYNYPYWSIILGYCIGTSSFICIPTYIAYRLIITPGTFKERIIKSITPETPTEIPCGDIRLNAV

D2 receptors, sequence (P14416 whole entry): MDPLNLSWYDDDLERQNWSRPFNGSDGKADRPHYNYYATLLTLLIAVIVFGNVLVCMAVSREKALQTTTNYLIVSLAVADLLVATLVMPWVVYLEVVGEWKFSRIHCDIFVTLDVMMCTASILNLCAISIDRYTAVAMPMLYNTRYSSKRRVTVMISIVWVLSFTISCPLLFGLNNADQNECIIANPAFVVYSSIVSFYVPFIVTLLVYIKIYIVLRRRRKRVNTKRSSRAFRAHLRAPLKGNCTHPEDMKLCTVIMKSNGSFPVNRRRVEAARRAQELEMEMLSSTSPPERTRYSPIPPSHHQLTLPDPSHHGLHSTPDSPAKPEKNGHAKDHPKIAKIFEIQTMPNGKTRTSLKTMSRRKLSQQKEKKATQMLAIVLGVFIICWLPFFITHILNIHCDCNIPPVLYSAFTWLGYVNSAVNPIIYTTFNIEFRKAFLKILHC

SMILES | water solubility [1] | propensity to induce catalepsy [2] | activity in therapeutic models sensitive to antipsychotics, antidepressants, anxiolytics, Parkinson's disease [3] | activity at D2 receptors [4] | activity against 5HT reuptake [5]
CC1Oc2c(cccc2N2CCN(CCCc3c[nH]c4ccc(F)cc34)CC2)NC1=O (stereo not drawn) [compound 3] | 500 µg/mL (freebase equivalent) | – | – | – | –
CC1Oc2c(cccc2N2CCN(CCCc3c[nH]c4ccc(F)cc34)CC2)NC1=O (stereo not drawn) [compound 2] | 1600 µg/mL (freebase equivalent) | – | – | – | –
CC1Oc2c(cccc2N2CCN(CCCc3c[nH]c4ccc(F)cc34)CC2)NC1=O (stereo not drawn) [compound 1, 8-{4-[3-(5-fluoro-1H-indol-3-yl)-propyl]-piperazin-1-yl}-2-methyl-4H-benzo[1,4]oxazin-3-one] | – | low propensity to induce catalepsy | active | antagonistic activity | inhibitory activity
